Results taken from patent US20240174674A1, “NITROGEN-CONTAINING POLYCYCLIC FUSED RING COMPOUND, PHARMACEUTICAL COMPOSITION THEREOF, PREPARATION METHOD THEREFOR, AND USE THEREOF” (APPLIED PHARMACEUTICAL SCIENCE, INC., priority 2021, published 2024).

Biological target: RET G810R (Homo sapiens (Human), UniProt P07949, G810R)
Assay: HTRF KinEASE-TK kinase activity test, RET G810R
Details: for inhibitory activity against RET G810R relative to that of selpercatinib (LOXO-292): fold versus selpercatinib (LOXO-292); for IC50: read-out: RET G810R IC50, HTRF kinase assay

Sequence of RET G810R (P07949 29-1114 G810R): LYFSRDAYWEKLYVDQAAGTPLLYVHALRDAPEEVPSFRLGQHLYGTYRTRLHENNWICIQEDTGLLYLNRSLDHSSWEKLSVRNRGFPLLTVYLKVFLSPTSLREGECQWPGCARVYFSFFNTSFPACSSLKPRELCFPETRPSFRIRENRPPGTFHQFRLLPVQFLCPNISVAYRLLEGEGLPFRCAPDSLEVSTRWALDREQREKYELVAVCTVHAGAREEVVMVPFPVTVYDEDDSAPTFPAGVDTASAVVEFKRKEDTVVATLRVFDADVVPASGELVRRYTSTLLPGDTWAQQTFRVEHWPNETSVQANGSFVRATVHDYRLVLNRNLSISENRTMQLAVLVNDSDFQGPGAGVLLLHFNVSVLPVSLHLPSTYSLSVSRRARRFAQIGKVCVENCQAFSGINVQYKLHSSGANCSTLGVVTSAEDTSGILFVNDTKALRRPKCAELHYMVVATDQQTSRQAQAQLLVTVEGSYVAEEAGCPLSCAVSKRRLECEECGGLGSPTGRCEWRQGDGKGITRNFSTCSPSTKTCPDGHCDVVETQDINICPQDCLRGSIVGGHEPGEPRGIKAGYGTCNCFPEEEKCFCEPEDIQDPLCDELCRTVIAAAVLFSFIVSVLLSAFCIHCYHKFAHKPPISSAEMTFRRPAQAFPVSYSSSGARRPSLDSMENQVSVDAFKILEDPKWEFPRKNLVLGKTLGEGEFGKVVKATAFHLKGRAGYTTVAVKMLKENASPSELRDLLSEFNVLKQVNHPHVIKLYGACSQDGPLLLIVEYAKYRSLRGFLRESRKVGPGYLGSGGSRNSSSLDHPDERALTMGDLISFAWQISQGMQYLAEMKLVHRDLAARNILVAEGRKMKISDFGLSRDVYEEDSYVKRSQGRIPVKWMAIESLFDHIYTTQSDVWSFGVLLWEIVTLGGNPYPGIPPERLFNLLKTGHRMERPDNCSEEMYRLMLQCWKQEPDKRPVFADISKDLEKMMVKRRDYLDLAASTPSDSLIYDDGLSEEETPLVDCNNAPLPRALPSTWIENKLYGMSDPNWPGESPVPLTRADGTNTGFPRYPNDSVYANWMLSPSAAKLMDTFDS

Row | Compound | inhibitory activity against RET G810R relative to that of selpercatinib (LOXO-292) [times] | IC50 [nM]
1 | CCOc1cc(-c2ccc(N3CCC(Oc4ccc(OC)nn4)CC3)nc2)c2c3cn[nH]c3nn2c1 [Compound 8] | – | 8.7
2 | CCOc1cc(-c2ccc(N3CC4(CCCN4Cc4ccc(OC)nc4)C3)nc2)c2c3cn[nH]c3nn2c1 [Compound 188, 6-ethoxy-4-(6-(5-((6-methoxypyridin-3-yl)methyl)-2,5-diazaspiro[3.4]octan-2-yl)pyridin-3-yl)-1 H-pyrazolo[3′,4′:3,4]pyrazolo[1,5-α]pyridine] | – | 16.9
3 | CCOc1cc(-c2ccc(N3CC4CCC3CN4Cc3ccc(OC)nc3)nc2)c2c3cn[nH]c3nn2c1 (stereo not drawn) [Compound 160, 6-ethoxy-4-(6-(5-((6-methoxypyridin-3-yl)methyl)-2,5-diazabicyclo[2.2.2]octan-2-yl)pyridin-3-y 1)-1H-pyrazolo[3′,4′:3,4]pyrazolo[1,5-α]pyridine] | – | 8.2
4 | CCOc1cc(-c2ccc(N3CCC(C)(S(=O)(=O)CC(C)C)CC3)nc2)c2c3cn[nH]c3nn2c1 [Compound 33, 6-ethoxy-4-(6-(4-(isobutylsulfonyl)-4-methylpiperidin-1-yl)pyridin-3-yl)-1H-pyrazolo[3′,4′:3,4]p yrazolo[1,5-α]pyridine] | ≥ 10 | 2.5
5 | CCOc1cc(-c2cnc(N3CCC(C)(NC(=O)c4ncc(F)cc4Cl)CC3)cn2)c2c3cn[nH]c3nn2c1 [Compound 55, 3-chloro-N-(1-(5-(6-ethoxy-1H-pyrazolo[3′,4′:3,4]pyrazolo[1,5-α]pyridin-4-yl)pyrazin-2-yl)-4-methylpiperidin-4-yl)-5-fluoro-2-picolinamide] | – | 4.5
6 | CCOc1cc(-c2ccc(N3CCC4(CC3)CCN4C(=O)c3c(F)cccc3Cl)nc2)c2c3cn[nH]c3nn2c1 [Compound 201, N-(7-(5-(6-ethoxy-1H-pyrazolo[3′,4′:3,4]pyrazolo[1,5-α]pyridin-4-yl)pyridin-2-yl)-1,7-diazaspiro [3.5]nonan-1-yl)-2-chloro-6-fluorobenzamide] | – | 4.1
7 | CCOc1cc(-c2ccc(N3CC[C@H](NS(=O)(=O)c4c(F)cccc4F)[C@H](O)C3)nc2)c2c3cn[nH]c3nn2c1 [Compound 269, N-((3R,4S)-1-(5-(6-ethoxy-1H-pyrazolo[3′,4′:3,4]pyrazolo[1,5-α]pyridin-4-yl)pyridin-2-yl)-3-hydroxypiperidin-4-yl)-2,6-difluorobenzenesulfonamide] | ≥ 10 | 6.2
8 | O=C(N[C@H]1CCN(c2ccc(-c3cc(OCC(F)F)cn4nc5[nH]ncc5c34)cn2)C[C@H]1O)c1c(F)cccc1F [Compound 268, N-((3R,4S)-1-(5-(6-(2,2-difluoroethoxy)-1H-pyrazolo[3′,4′:3,4]pyrazolo[1,5-α]pyridin-4-yl)pyridin-2-yl)-3-hydroxypiperidin-4-yl)-2,6-difluorobenzamide] | ≥ 10 | 2.8
9 | CCOc1cc(-c2ccc(N3C[C@@H]4[C@H](C3)[C@H]4NC(=O)c3c(F)cccc3Cl)nc2)c2c3cn[nH]c3nn2c1 [Compound 170, 2-chloro-N-((1R,5S,6S)-3-(5-(6-ethoxy-1H-pyrazolo[3′,4′:3,4]pyrazolo[1,5-α]pyridin-4-yl)pyridin-2-yl)-3-azabicyclo[3.1.0]hexan-6-yl)-6-fluorobenzamide] | – | 27.3
10 | CCOc1cc(-c2ccc(N3CC4COCC(C3)N4Cc3ccc(OC)nc3)nc2)c2c3cn[nH]c3nn2c1 [Compound 114, 7-(5-(6-ethoxy-1H-pyrazolo[3′,4′:3,4]pyrazolo[1,5-α]pyridin-4-yl)pyridin-2-yl)-9-((6-methoxypyridin-3-yl)methylene)-3-oxa-7,9-diazabicyclo[3.3.1]nonane] | ≥ 10 | 3.6
11 | CCOc1cc(-c2ccc(N3CCC(CO)(NC(=O)c4ncccc4Cl)CC3)nc2)c2c3cn[nH]c3nn2c1 [Compound 12, 3-chloro-N-(1-(5-(6-ethoxy-1H-pyrazolo[3′,4′:3,4]pyrazolo[1,5-α]pyridin-4-yl)pyridin-2-yl)-4-(hydroxymethyl)piperidin-4-yl)picolinamide] | ≥ 10 | 2.1
12 | CCOc1cc(-c2ccc(N3CCC(CO)(NC(=O)c4cc(F)ccc4F)CC3)nc2)c2c3cn[nH]c3nn2c1 [Compound 150, N-(1-(5-(6-ethoxy-1H-pyrazolo[3′,4′:3,4]pyrazolo[1,5-α]pyridin-4-yl)pyridin-2-yl)-4-(hydroxymethyl)piperidin-4-yl)-2,5-difluorobenzamide] | – | 4.4
13 | C#CCOc1cc(-c2ccc(N3CC4CC(C3)N4Cc3ccc(OC)nc3)nc2)c2c3cn[nH]c3nn2c1 [Compound 227, 4-(6-(6-((6-methoxypyridin-3-yl)methylene)-3,6-diazabicyclo[3.1.1]heptan-3-yl)pyridin-3-yl)-6-(prop-2-yn-1-yloxy)-1H-pyrazolo[3′,4′:3,4]pyrazolo[1,5-α]pyridine] | – | 4.01
14 | COc1ccc(CN2C3CC2CN(c2ccc(-c4cc(C#N)cn5nc6[nH]ncc6c45)cn2)C3)cn1 [Compound 243] | – | 89
15 | CCOc1cc(-c2ccc(N3CCN(Cc4ccc(OC)nc4)C(CO)C3)nc2)c2c3cn[nH]c3nn2c1 (stereo not drawn) [Compound 249, (4-(5-(6-ethoxy-1H-pyrazolo[3′,4′:3,4]pyrazolo[1,5-α]pyridin-4-yl)pyridin-2-yl)-1-((6-methoxypyridin-3-yl)methylene)piperazin-2-yl)methanol] | – | 13.5
16 | CCOc1cc(-c2ccc(N3CCC(CN4CCC4)(C(=O)NCC(C)C)CC3)nc2)c2c3cn[nH]c3nn2c1 [Compound 36, 4-(azetidin-1-ylmethyl)-1-(5-(6-ethoxy-1H-pyrazolo[3′,4′:3,4]pyrazolo[1,5-α]pyridin-4-yl)pyridin-2-yl)-N-isobutylpiperidine-4-carboxamide] | – | 5.7
17 | CCOc1cc(-c2ccc(N3CCC(Oc4ccc(C)nn4)CC3)nc2)c2c3cn[nH]c3nn2c1 [Compound 104, 6-ethoxy-4-(6-(4-((6-methylpyridazin-3-yl)oxy)piperidin-1-yl)pyridin-3-yl)-1H-pyrazolo[3′,4′:3,4]pyrazolo[1,5-α]pyridine] | – | 6.4
18 | CCOc1cc(-c2ccc(N3CCC(CN(C)C)(NC(=O)c4ncccc4Cl)CC3)nc2)c2c3cn[nH]c3nn2c1 [Compound 15, 3-chloro-N-(4-((2-dimethylamino)methyl)-1-(5-(6-ethoxy-1H-pyrazolo[3′,4′:3,4]pyrazolo[1,5-α]pyridin-4-yl)pyridin-2-yl)piperidin-4-yl)picolinamide] | ≥ 10 | 1.5

Other lines, results leading:

Row | inhibitory activity against RET G810R relative to that of selpercatinib (LOXO-292) [times] | IC50 [nM] | Compound
19 | ≥ 10 | 2.1 | O=C(N[C@H]1CCN(c2ccc(-c3cc(OCC(F)F)cn4nc5[nH]ncc5c34)cn2)C[C@@H]1O)c1c(F)cccc1F [Compound 296, N-((3S,4S)-1-(5-(6-(2,2-difluoroethoxy)-1H-pyrazolo[3′,4′:3,4]pyrazolo[1,5-α]pyridin-4-yl)pyridin-2-yl)-3-hydroxypiperidin-4-yl)-2,6-difluorobenzamide]
20 | ≥ 10 | 1.6 | CCOc1cc(-c2ccc(N3CCC(CO)(NC(=O)c4cc(F)ccc4F)CC3)nc2)c2c3cn[nH]c3nn2c1 [Compound 291, N-(1-(5-(6-ethoxy-1H-pyrazolo[3′,4′:3,4]pyrazolo[1,5-α]pyridin-4-yl)pyridin-2-yl)-4-(hydroxymethyl)piperidin-4-yl)-2,5-difluorobenzamide]
21 | – | 9.9 | CCOc1cc(-c2ccc(N3CC[C@H](NC(=O)C(C)C(C)C)[C@H](O)C3)nc2)c2c3cn[nH]c3nn2c1 (stereo partly drawn) [Compound 283, N-((3R,4S)-1-(5-(6-ethoxy-1H-pyrazolo[3′,4′:3,4]pyrazolo[1,5-α]pyridin-4-yl)pyridin-2-yl)-3-hydroxypiperidin-4-yl)-2,3-dimethylbutanamide]
22 | ≥ 10 | 3.5 | CCOc1cc(-c2ccc(N3CC[C@H](NC(=O)C4(F)CC4)[C@H](O)C3)nc2)c2c3cn[nH]c3nn2c1 [Compound 282, N-((3R,4S)-1-(5-(6-ethoxy-1H-pyrazolo[3′,4′:3,4]pyrazolo[1,5-α]pyridin-4-yl)pyridin-2-yl)-3-hydroxypiperidin-4-yl)-1-fluorocyclopropane-1-carboxamide]
23 | ≥ 10 | 0.8 | CCOc1cc(-c2ccc(N3CC[C@H](NC(=O)c4c(F)cccc4Cl)[C@H](O)C3)nc2)c2c3cn[nH]c3nn2c1 [Compound 275, N-((3R,4S)-1-(5-(6-ethoxy-1H-pyrazolo[3′,4′:3,4]pyrazolo[1,5-α]pyridin-4-yl)pyridin-2-yl)-3-hydroxypiperidin-4-yl)-2-chloro-6-fluorobenzamide]
24 | – | 10.3 | CCOc1cc(-c2ccc(N3CC[C@H](NC(=O)c4ncccc4F)[C@H](O)C3)nc2)c2c3cn[nH]c3nn2c1 [Compound 286, N-((3R,4S)-1-(5-(6-ethoxy-1H-pyrazolo[3′,4′:3,4]pyrazolo[1,5-α]pyridin-4-yl)pyridin-2-yl)piperidin-3-hydroxypiperidin-4-yl)-3-fluoropicolinamide]
25 | ≥ 10 | 2.1 | CCOc1cc(-c2ccc(N3CC[C@H](NC(=O)c4ccccc4C#N)[C@H](O)C3)nc2)c2c3cn[nH]c3nn2c1 [Compound 280, 2-cyano-N-((3R,4S)-1-(5-(6-ethoxy-1H-pyrazolo[3′,4′:3,4]pyrazolo[1,5-α]pyridin-4-yl)pyridin-2-yl)-3-hydroxypiperidin-4-yl)benzamide]
26 | ≥ 10 | 1.6 | O=C(N[C@H]1CCN(c2ccc(-c3cc(OCC(F)F)cn4nc5[nH]ncc5c34)cn2)C[C@H]1O)c1cc(F)ccc1Cl [Compound 293, N-((3R,4S)-1-(5-(6-(2,2-difluoroethoxy)-1H-pyrazolo[3′,4′:3,4]pyrazolo[1,5-α]pyridin-4-yl)pyridin-2-yl)piperidin-3-hydroxypiperidin-4-yl)-2-chloro-5-fluorobenzamide]
